Results as given in ChEMBL document CHEMBL1201862, “PubChem BioAssay data set” (2004).
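Briefly, cells in 96-well plates were exposed to five compound concentrations for 48 h, and endpoints were estimated by linear interpolation. GI50 = concentration required for 50% inhibition of growth.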 Calls of active or inactive are those of the source. Cut-off read from the data, not from the text of the source: active = GI50 up to about 1.1 µM and inactive = higher.

How the values were obtained:
Assay in all cases: inhibition of tumour cell growth, NCI panel, 48 h
[1] = tested on: NCI-H226
[2] = tested on: HCT-116
[3] = tested on: OVCAR-3
[4] = tested on: SF-295
[5] = tested on: HT-29
[6] = tested on: SR
[7] = tested on: SNB-19
[8] = tested on: MDA-N
[9] = tested on: OVCAR-5
[10] = tested on: HL-60
[11] = tested on: RXF 393
[12] = tested on: MOLT-4
[13] = tested on: HOP-92
[14] = tested on: EKVX
[15] = tested on: Malme-3M
[16] = tested on: PC-3
[17] = tested on: ACHN
[18] = tested on: TK-10
[19] = tested on: HOP-62
[20] = tested on: HCC 2998

COc1cc(C2c3cc4c(cc3OC(N3CCNCC3)C2C)OCO4)cc(OC)c1OC (stereo not given) was tested, and the GI50 [1] was 1.83 µM (inactive), the GI50 [2] was 0.56 µM (active) and the GI50 [3] was 0.204 µM (active). The GI50 [4] was 0.234 µM (active), the GI50 [5] was 0.387 µM (active) and the GI50 [6] was 0.441 µM (active). For the same molecule, the GI50 [7] was 0.912 µM (active), the GI50 [8] was 0.253 µM (active) and the GI50 [9] was 5.13 µM (inactive). For the same molecule, the GI50 [10] was 0.288 µM (active), the GI50 [11] was 0.3 µM (active) and the GI50 [12] was 1.16 µM (inactive). The GI50 [13] was 0.748 µM (active), the GI50 [14] was 6.38 µM (inactive) and the GI50 [15] was 0.294 µM (active). The GI50 [16] was 0.456 µM (active), the GI50 [17] was 1.75 µM (inactive) and the GI50 [18] was 20.7 µM (inactive). For the same molecule, the GI50 [19] was 1.13 µM (inactive) and the GI50 [20] was 2.26 µM (inactive).
Clc1ccc(Nc2nc(Cl)c3nc[nH]c3n2)cc1Cl was tested, and the GI50 [1] was 38.4 µM (inactive), the GI50 [2] was 29.5 µM (inactive) and the GI50 [3] was 19.1 µM (inactive). For the same molecule, the GI50 [4] was 23.7 µM (inactive), the GI50 [5] was 18.2 µM (inactive) and the GI50 [6] was 19.2 µM (inactive). For the same molecule, the GI50 [7] was 37.2 µM (inactive), the GI50 [8] was 39.8 µM (inactive) and the GI50 [9] was 48.8 µM (inactive). The GI50 [10] was 18.2 µM (inactive), the GI50 [11] was 21 µM (inactive) and the GI50 [12] was 24 µM (inactive). For the same molecule, the GI50 [13] was 23.4 µM (inactive), the GI50 [14] was 1.97 µM (inactive) and the GI50 [15] was 32.3 µM (inactive). The GI50 [16] was 14.7 µM (inactive), the GI50 [17] was 24.9 µM (inactive) and the GI50 [18] was 32.4 µM (inactive). The GI50 [19] was 15.9 µM (inactive) and the GI50 [20] was 16.9 µM (inactive).
With Cc1ccc(/C=C/C(=O)c2c([O-])on[n+]2-c2ccccc2)cc1 the GI50 [1] was 3.79 µM (inactive), the GI50 [2] was 1.84 µM (inactive) and the GI50 [3] was 3.1 µM (inactive). For the same molecule, the GI50 [4] was 7.74 µM (inactive), the GI50 [5] was 1.9 µM (inactive) and the GI50 [6] was 2.9 µM (inactive). For the same molecule, the GI50 [7] was 3.98 µM (inactive), the GI50 [8] was 2.92 µM (inactive) and the GI50 [9] was 4.17 µM (inactive). For the same molecule, the GI50 [10] was 1.47 µM (inactive), the GI50 [11] was 1.94 µM (inactive) and the GI50 [12] was 2.34 µM (inactive). The GI50 [13] was 4.52 µM (inactive), the GI50 [14] was 3.6 µM (inactive) and the GI50 [15] was 5.42 µM (inactive). For the same molecule, the GI50 [16] was 4.72 µM (inactive), the GI50 [17] was 1.87 µM (inactive) and the GI50 [18] was 2.95 µM (inactive). The GI50 [19] was 5.28 µM (inactive) and the GI50 [20] was 2.01 µM (inactive).
With O=C(c1c(F)c(F)c(F)c(F)c1F)c1c(F)c(F)c(F)c(F)c1F the GI50 [1] was 3.51 µM (inactive), the GI50 [2] was 1.51 µM (inactive) and the GI50 [3] was 0.979 µM (active). For the same molecule, the GI50 [4] was 2.55 µM (inactive), the GI50 [5] was 1.32 µM (inactive) and the GI50 [6] was 0.174 µM (active). The GI50 [7] was 4.06 µM (inactive), the GI50 [8] was 1.43 µM (inactive) and the GI50 [9] was 1.9 µM (inactive). For the same molecule, the GI50 [10] was 0.48 µM (active), the GI50 [11] was 1.55 µM (inactive) and the GI50 [12] was 0.171 µM (active). For the same molecule, the GI50 [13] was 1.83 µM (inactive), the GI50 [14] was 1.96 µM (inactive) and the GI50 [15] was 1.52 µM (inactive). For the same molecule, the GI50 [16] was 1.62 µM (inactive), the GI50 [17] was 1.7 µM (inactive) and the GI50 [18] was 1.19 µM (inactive). For the same molecule, the GI50 [19] was 1.81 µM (inactive) and the GI50 [20] was 1.67 µM (inactive).
O=C1CSC(c2cc3cc(Br)ccc3nc2Cl)N1c1ccc(Cl)cc1 (stereo not given) was tested, and the GI50 [1] was 39.2 µM (inactive), the GI50 [2] was 23.6 µM (inactive) and the GI50 [3] was 16.7 µM (inactive). The GI50 [4] was 12.9 µM (inactive), the GI50 [5] was 32.9 µM (inactive) and the GI50 [6] was 15.1 µM (inactive). For the same molecule, the GI50 [7] was 42.7 µM (inactive), the GI50 [8] was 27.4 µM (inactive) and the GI50 [9] was 94.8 µM (inactive). The GI50 [10] was 20.7 µM (inactive), the GI50 [11] was 20.8 µM (inactive) and the GI50 [12] was 17.4 µM (inactive). The GI50 [13] was 37.2 µM (inactive), the GI50 [14] was 27.2 µM (inactive) and the GI50 [15] was 25.7 µM (inactive). The GI50 [16] was 41.2 µM (inactive), the GI50 [17] was 13.5 µM (inactive) and the GI50 [18] was 29.6 µM (inactive). The GI50 [19] was 25.8 µM (inactive) and the GI50 [20] was 19.2 µM (inactive).
OC[C@H]1C[C@@H]2Cc3ccccc3N2N1 was tested, and the GI50 [1] was > 100 µM (inactive), the GI50 [2] was > 100 µM (inactive) and the GI50 [3] was > 100 µM (inactive). The GI50 [4] was > 100 µM (inactive), the GI50 [5] was > 100 µM (inactive) and the GI50 [6] was > 100 µM (inactive). For the same molecule, the GI50 [7] was > 100 µM (inactive), the GI50 [8] was > 100 µM (inactive) and the GI50 [9] was > 100 µM (inactive). For the same molecule, the GI50 [10] was > 100 µM (inactive), the GI50 [11] was > 100 µM (inactive) and the GI50 [12] was > 100 µM (inactive). For the same molecule, the GI50 [13] was > 100 µM (inactive), the GI50 [14] was > 100 µM (inactive) and the GI50 [15] was > 100 µM (inactive). The GI50 [16] was > 100 µM (inactive), the GI50 [17] was > 100 µM (inactive) and the GI50 [18] was > 100 µM (inactive). For the same molecule, the GI50 [19] was > 100 µM (inactive) and the GI50 [20] was > 100 µM (inactive).
In the case of Cn1cnc([N+](=O)[O-])c1Sc1nc(N)nc2c1ncn2C1OC(CO)C(O)C1O (stereo not given), the GI50 [1] is reported as 15.8 µM (inactive), the GI50 [2] is reported as 3.85 µM (inactive) and the GI50 [3] is reported as 4.9 µM (inactive). The GI50 [4] was 3.46 µM (inactive), the GI50 [5] was 6.27 µM (inactive) and the GI50 [6] was 1.53 µM (inactive). The GI50 [7] was 44.6 µM (inactive), the GI50 [8] was 2.73 µM (inactive) and the GI50 [9] was 1.88 µM (inactive). For the same molecule, the GI50 [10] was 9.44 µM (inactive), the GI50 [11] was 3.78 µM (inactive) and the GI50 [12] was 5 µM (inactive). For the same molecule, the GI50 [13] was 1.33 µM (inactive), the GI50 [14] was 8.39 µM (inactive) and the GI50 [15] was 17.8 µM (inactive). For the same molecule, the GI50 [16] was 1.52 µM (inactive), the GI50 [17] was 9.04 µM (inactive) and the GI50 [18] was 6.76 µM (inactive). For the same molecule, the GI50 [19] was 1.44 µM (inactive) and the GI50 [20] was 2.77 µM (inactive).
